Data as given in patent US8835429B2, “Pyrimidine compounds, their use as mTOR kinase and Pl3 kinase inhibitors, and their syntheses” (Wyeth LLC, priority 2009, dated 2014).

Key:
PI3K-alpha = PI3K-alpha (Homo sapiens, UniProt P42336); assay: PI3K-alpha fluorescence polarization assay; assay type: biochemical; conditions: 20 μM PIP2, 25 μM ATP; read-out: PI3Kα IC50
How it was run: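 PIP2 (diC8) and ATP substrate with PI3K in 20 mM HEPES pH 7.5, 2 mM MgCl2, 0.05% CHAPS, 0.01% βME; 1% DMSO final; 30–60 min reaction. Stopped with EDTA plus GST-GRP (70 nM) and TAMRA probe (10 nM); FP (mP) read after 30–90 min, with no-enzyme controls.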

MDA468 = assay: In vitro cell growth assay (MTS), MDA468; assay type: cell-based; conditions: 72 h, human breast line MDA468, three days after drug treatment, read-out: MDA IC50
LNCap = assay: In vitro cell growth assay (MTS), LNCap; assay type: cell-based; conditions: LNCaP, 72 h, human prostate line, three days after drug treatment
PI3K-gamma = PI3K-gamma (Homo sapiens, UniProt P48736); assay: PI3K-gamma fluorescence polarization assay; assay type: biochemical; conditions: 20 μM PIP2, 25 μM ATP; read-out: PI3Kγ IC50
Sequence of PI3K-gamma (P48736 whole entry, species assumed): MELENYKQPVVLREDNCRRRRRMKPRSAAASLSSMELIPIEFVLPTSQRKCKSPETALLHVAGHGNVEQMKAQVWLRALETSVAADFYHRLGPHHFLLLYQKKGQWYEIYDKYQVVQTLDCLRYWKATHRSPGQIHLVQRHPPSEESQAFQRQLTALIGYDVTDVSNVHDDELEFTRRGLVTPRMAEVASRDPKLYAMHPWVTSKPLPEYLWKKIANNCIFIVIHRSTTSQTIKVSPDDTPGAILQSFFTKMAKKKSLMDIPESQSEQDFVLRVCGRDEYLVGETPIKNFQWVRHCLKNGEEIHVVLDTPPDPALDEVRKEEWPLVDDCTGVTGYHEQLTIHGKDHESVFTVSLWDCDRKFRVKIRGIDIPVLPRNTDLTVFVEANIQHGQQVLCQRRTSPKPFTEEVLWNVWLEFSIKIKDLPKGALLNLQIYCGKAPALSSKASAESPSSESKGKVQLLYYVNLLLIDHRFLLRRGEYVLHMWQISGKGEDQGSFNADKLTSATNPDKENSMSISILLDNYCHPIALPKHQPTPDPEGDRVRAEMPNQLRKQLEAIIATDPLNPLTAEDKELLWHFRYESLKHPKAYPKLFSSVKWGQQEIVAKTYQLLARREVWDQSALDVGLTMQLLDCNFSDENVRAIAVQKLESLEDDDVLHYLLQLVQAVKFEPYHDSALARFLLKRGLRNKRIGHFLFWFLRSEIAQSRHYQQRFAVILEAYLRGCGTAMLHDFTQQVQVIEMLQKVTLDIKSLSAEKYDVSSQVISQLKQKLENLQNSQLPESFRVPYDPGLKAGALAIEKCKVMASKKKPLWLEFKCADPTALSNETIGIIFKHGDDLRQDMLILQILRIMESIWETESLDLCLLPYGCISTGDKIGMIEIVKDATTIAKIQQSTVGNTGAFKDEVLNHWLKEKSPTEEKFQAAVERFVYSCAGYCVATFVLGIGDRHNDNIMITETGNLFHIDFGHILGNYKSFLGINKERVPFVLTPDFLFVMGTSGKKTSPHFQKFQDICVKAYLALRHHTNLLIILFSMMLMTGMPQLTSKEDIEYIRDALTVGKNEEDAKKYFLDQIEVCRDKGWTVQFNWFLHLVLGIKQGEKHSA
Experimental: The reaction buffer was 20 mM HEPES, pH 7.5, 2 mM MgCl2, 0.05% CHAPS; and 0.01% βME (added fresh). The stop/detection buffer was 100 mM HEPES, pH 7.5, 4 mM EDTA, 0.05% CHAPS; ATP 20 mM in water; PIP2 (diC8, Echelon, Salt Lake City Utah cat #P-4508) 1 mM in water (MW=856.5). The GST-GRP was 1.75 mg/mL or 1.4 mg/mL in 10% glycerol. The red detector (TAMRA) was 2.5 μM. Nunc 384-well black polypropylene fluorescent plates were used for PI3K assays.
The assay is run by placing 5 μL of diluted enzyme per well, then 5 μL of diluted compound (or 9.5 μL enzyme then 0.5 μL compound in DMSO) is added and mixed. Then, 10 μL substrate is added to start the reaction. The samples are incubated 30-60 minutes, then the reaction is stopped by adding 20 μL stop/detector mix. PI3K is diluted with reaction buffer (e.g., 5 μL or 7.5 μL PI3K into 620 μL reaction buffer), and 5 μL of diluted enzyme is used per well. A 5 μL portion of reaction buffer or of drug diluted in buffer (e.g., 4 μL/100 so final DMSO is 1% in reaction) is added to each. Pipetting up and down mixes the samples. Alternatively, the enzyme can be diluted to 1215 μL. In this case 9.8 μL is added per well and 0.2 μL compound is added in DMSO.
To prepare 1 mL of substrate solution, 955 μL reaction buffer, 40 μL PIP2, and 2.5 μL ATP are mixed. 10 μL of substrate is added to each well to start the reaction. […] The stop/detector mix is prepared by mixing 4 μL red detector and 1.6 μL or 2.0 μL GST-GRP with 1 mL stop buffer, which results in 10 nM probe and 70 nM GST-GRP. 20 μL of the stop/detector mix is added to each well to stop the reaction. The plates are read after 30-90 minutes keeping the red probe solutions dark. For the zero time point, stop/detector mix is added to the enzyme just before adding substrate. For an extra control, stop/detector mix is added to buffer (no enzyme) and substrate or to just buffer (no substrate). […] The recommended reaction has 0.06 μL per 20 μL (0.015 μg/20 μL) or 0.01125 μg/15 μL or 0.75 μg/mL.
Plates are read on machines with filters for TAMRA. The units are mP with no enzyme controls reading app 190-220 mP units. Fully active enzyme reduces fluorescence polarization down to 70-100 mP after 30 minutes. An active compound raises the mP values halfway to control or to 120-150 mP units.

mTOR = mTOR (Homo sapiens, UniProt P42345); assay: mTOR enzyme assay (DELFIA, purified FLAG-TOR, His6-S6K substrate); assay type: biochemical; parameters: FLAG; conditions: 100 μM ATP, 2 hours
Sequence of mTOR (P42345 1360-2549 limits assumed): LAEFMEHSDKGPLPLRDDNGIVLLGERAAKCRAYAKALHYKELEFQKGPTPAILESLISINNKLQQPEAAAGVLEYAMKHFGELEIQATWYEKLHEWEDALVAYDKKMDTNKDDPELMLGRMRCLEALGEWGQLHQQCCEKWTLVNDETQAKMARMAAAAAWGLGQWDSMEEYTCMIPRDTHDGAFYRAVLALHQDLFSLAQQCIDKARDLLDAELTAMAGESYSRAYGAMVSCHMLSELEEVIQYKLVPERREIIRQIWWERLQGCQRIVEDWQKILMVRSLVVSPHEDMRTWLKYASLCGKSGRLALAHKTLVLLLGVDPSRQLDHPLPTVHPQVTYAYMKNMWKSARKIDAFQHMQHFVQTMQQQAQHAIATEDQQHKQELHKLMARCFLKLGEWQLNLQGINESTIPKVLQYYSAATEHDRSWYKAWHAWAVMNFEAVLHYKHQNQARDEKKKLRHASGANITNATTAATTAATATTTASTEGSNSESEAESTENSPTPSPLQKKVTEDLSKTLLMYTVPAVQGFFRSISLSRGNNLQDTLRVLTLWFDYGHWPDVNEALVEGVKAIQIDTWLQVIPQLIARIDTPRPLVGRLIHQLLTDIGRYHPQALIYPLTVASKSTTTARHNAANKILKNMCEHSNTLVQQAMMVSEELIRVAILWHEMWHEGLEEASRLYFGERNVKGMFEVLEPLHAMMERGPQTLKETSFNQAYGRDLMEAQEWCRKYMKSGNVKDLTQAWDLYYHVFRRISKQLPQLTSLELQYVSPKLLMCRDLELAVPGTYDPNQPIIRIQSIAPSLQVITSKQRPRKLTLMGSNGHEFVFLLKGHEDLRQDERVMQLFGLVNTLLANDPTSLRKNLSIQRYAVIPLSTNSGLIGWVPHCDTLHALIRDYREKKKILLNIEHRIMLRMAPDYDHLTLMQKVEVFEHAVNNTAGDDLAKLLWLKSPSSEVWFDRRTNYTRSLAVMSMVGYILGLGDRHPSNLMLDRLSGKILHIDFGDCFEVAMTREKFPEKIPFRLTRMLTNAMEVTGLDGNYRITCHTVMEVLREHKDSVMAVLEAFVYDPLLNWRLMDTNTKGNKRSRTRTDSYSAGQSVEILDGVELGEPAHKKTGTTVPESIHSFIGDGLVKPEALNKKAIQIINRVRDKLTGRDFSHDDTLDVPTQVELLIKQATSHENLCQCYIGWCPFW

Sequence of PI3K-alpha (P42336 whole entry, species assumed): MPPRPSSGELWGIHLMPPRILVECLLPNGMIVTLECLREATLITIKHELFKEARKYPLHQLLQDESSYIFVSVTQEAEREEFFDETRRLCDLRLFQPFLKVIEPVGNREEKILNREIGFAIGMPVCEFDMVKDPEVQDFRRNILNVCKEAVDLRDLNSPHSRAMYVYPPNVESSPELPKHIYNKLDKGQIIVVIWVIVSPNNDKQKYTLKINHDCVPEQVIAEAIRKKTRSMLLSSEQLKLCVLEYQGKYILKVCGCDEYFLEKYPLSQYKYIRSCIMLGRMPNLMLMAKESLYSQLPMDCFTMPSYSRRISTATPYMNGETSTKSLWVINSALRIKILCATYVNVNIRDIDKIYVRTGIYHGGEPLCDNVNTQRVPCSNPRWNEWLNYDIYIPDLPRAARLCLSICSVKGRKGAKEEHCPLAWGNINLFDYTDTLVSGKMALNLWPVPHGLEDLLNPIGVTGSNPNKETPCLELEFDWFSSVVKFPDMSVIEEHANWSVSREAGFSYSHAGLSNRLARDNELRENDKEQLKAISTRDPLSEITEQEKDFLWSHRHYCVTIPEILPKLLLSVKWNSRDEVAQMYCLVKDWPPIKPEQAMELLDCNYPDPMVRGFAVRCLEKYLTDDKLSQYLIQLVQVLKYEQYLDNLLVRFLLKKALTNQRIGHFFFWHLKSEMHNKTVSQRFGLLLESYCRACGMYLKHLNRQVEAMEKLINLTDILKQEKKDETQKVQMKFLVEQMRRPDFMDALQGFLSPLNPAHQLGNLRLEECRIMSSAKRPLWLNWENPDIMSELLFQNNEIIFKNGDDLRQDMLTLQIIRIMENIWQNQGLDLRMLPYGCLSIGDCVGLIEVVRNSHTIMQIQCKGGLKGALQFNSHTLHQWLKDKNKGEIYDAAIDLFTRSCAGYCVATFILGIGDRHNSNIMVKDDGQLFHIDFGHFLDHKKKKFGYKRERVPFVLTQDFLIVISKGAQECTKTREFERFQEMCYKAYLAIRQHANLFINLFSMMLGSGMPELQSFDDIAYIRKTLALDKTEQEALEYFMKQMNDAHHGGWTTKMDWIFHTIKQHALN
Sequence of PI3K-alpha (P27986 whole entry partner, species assumed): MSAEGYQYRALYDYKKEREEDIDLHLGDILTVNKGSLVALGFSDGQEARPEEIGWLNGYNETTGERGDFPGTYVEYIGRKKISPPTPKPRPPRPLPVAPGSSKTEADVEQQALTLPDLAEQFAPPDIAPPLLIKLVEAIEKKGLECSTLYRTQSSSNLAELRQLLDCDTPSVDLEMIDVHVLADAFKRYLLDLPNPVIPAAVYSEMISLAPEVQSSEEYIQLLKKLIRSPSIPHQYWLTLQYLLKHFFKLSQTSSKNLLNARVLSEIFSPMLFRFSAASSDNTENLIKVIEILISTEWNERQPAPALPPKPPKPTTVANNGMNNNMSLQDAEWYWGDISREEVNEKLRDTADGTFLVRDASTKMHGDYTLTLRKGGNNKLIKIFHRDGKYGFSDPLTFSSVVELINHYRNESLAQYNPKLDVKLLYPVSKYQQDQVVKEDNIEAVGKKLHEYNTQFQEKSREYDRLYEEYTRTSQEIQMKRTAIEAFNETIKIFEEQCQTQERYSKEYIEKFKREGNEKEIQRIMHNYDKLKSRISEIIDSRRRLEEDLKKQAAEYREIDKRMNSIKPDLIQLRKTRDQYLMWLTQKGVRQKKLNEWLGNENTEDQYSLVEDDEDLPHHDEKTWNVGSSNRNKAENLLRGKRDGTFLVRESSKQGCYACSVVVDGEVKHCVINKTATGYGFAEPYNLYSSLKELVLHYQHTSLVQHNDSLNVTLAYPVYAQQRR

SMILES	IC50 (PI3K-alpha) [nM]	IC50 (MDA468) [nM]	IC50 (LNCap) [nM]	IC50 (PI3K-gamma) [µM]	IC50 (mTOR) [nM]
CC(C)N1CCN(C(=O)c2ccc(NC(=O)Nc3ccc(-c4nc(C5CCOCC5)cc(N5C6CCC5COC6)n4)cc3)cc2)CC1 [1-(4-{[4-(1-methylethyl)piperazin-1-yl]carbonyl}phenyl)-3-{4-[4-(3-oxa-8-azabicyclo[3.2.1]oct-8-yl)-6-(tetrahydro-2H-pyran-4-yl)pyrimidin-2-yl]phenyl}urea]	353	0.8	≤ 0.8	3.21	0.295
CN1CCN(Cc2ccc(NC(=O)Nc3ccc(-c4nc(NCCS(C)(=O)=O)cc(N5C6CCC5COC6)n4)cc3)cc2)CC1 [1-{4-[(4-methylpiperazin-1-yl)methyl]phenyl}-3-{4-[4-{[2-(methylsulfonyl)ethyl]amino}-6-(3-oxa-8-azabicyclo[3.2.1]oct-8-yl)pyrimidin-2-yl]phenyl}urea]	3980	500	400	10.8	17.5
O=C(Nc1ccncc1)Nc1ccc(-c2nc(N3C4CCC3COC4)cc(N3C[C@@H]4C[C@H]3CO4)n2)cc1 [1-(4-{4-[(1S,4S)-2-oxa-5-azabicyclo[2.2.1]hept-5-yl]-6-(3-oxa-8-azabicyclo[3.2.1]oct-8-yl)pyrimidin-2-yl}phenyl)-3-pyridin-4-ylurea]	2810	75	30	≥ 10	3.05
C[C@@H]1COCCN1c1cc(N2C3CCC2COC3)nc(-c2ccc(NC(=O)Nc3cccnc3)cc2)n1 [1-(4-{4-[(3R)-3-methylmorpholin-4-yl]-6-(3-oxa-8-azabicyclo[3.2.1]oct-8-yl)pyrimidin-2-yl}phenyl)-3-pyridin-3-ylurea]	1060	80	20	7.47	0.77
CC(C)Nc1cc(N2C3COCC2COC3)nc(-c2ccc(NC(=O)Nc3ccc(CN4CCN(C)CC4)cc3)cc2)n1 [1-{4-[4-(3,7-dioxa-9-azabicyclo[3.3.1]non-9-yl)-6-(isopropylamino)pyrimidin-2-yl]phenyl}-3-{4-[(4-methylpiperazin-1-yl)methyl]phenyl}urea]	3160	1000	600	6.87	17.5
CC(C)Nc1cc(N2C3CCC2COC3)nc(-c2ccc(NC(=O)Nc3ccc(OCCN4CCCC4)cc3)cc2)n1 [1-(4-{4-[(1-methylethyl)amino]-6-(3-oxa-8-azabicyclo[3.2.1]oct-8-yl)pyrimidin-2-yl}phenyl)-3-[4-(2-pyrrolidin-1-ylethoxy)phenyl]urea]	1320	55	50	4.73	3.05
CN1CCN(C(=O)c2ccc(NC(=O)Nc3ccc(-c4nc(C5CCOCC5)cc(N5C6CCC5COC6)n4)cc3)cc2)CC1 [1-{4-[(4-methylpiperazin-1-yl)carbonyl]phenyl}-3-{4-[4-(3-oxa-8-azabicyclo[3.2.1]oct-8-yl)-6-(tetrahydro-2H-pyran-4-yl)pyrimidin-2-yl]phenyl}urea]	230	0.8	≤ 0.8	3.05	0.44
CN1CCN(c2ccc(NC(=O)Nc3ccc(-c4nc(NC5CCOCC5)cc(N5C6CCC5COC6)n4)cc3)cc2)CC1 [1-[4-(4-methylpiperazin-1-yl)phenyl]-3-{4-[4-(3-oxa-8-azabicyclo[3.2.1]oct-8-yl)-6-(tetrahydro-2H-pyran-4-ylamino)pyrimidin-2-yl]phenyl}urea]	2260	10	7	9.23	7.5
O=C(Nc1ccc(-c2nc(NC3CCOCC3)cc(N3C4CCC3COC4)n2)cc1)Nc1cccnc1 [1-{4-[4-(3-oxa-8-azabicyclo[3.2.1]oct-8-yl)-6-(tetrahydro-2H-pyran-4-ylamino)pyrimidin-2-yl]phenyl}-3-pyridin-3-ylurea]	2680	160	50	≥ 10	3.3
CN(C)Cc1cc(N2C3CCC2COC3)nc(-c2ccc(NC(=O)Nc3cccnc3)cc2)n1 [1-(4-{4-[(dimethylamino)methyl]-6-(3-oxa-8-azabicyclo[3.2.1]oct-8-yl)pyrimidin-2-yl}phenyl)-3-pyridin-3-ylurea]	3160	1000	600	> 10	10.8
C[C@@H]1COCCN1c1cc(N2C3CCC2COC3)nc(-c2ccc(NC(=O)Nc3ccc(C(=O)N(C)C)cc3)cc2)n1 [N,N-dimethyl-4-{[(4-{4-[(3R)-3-methylmorpholin-4-yl]-6-(3-oxa-8-azabicyclo[3.2.1]oct-8-yl)pyrimidin-2-yl}phenyl)carbamoyl]amino}benzamide]	108	0.8	≤ 0.8	1.64	0.44
CS(=O)(=O)CCNc1cc(N2C3CCC2COC3)nc(-c2ccc(NC(=O)Nc3ccncc3)cc2)n1 [1-{4-[4-{[2-(methylsulfonyl)ethyl]amino}-6-(3-oxa-8-azabicyclo[3.2.1]oct-8-yl)pyrimidin-2-yl]phenyl}-3-pyridin-4-ylurea]	1300	400	1000	10.8	4.05
CN(C)CCOc1ccc(NC(=O)Nc2ccc(-c3nc(NC4CCOCC4)cc(N4C5CCC4COC5)n3)cc2)cc1 [1-{4-[2-(dimethylamino)ethoxy]phenyl}-3-{4-[4-(3-oxa-8-azabicyclo[3.2.1]oct-8-yl)-6-(tetrahydro-2H-pyran-4-ylamino)pyrimidin-2-yl]phenyl}urea]	1110	48	30	4.54	7.6
CN1CCN(c2ccc(NC(=O)Nc3ccc(-c4nc(C5CCOCC5)cc(N5C6CCC5COC6)n4)cc3)cn2)CC1 [1-[6-(4-methylpiperazin-1-yl)pyridin-3-yl]-3-{4-[4-(3-oxa-8-azabicyclo[3.2.1]oct-8-yl)-6-(tetrahydro-2H-pyran-4-yl)pyrimidin-2-yl]phenyl}urea]	2590	4	≤ 0.8	≥ 10	1.22
CC(C)N1CCN(C(=O)c2ccc(NC(=O)Nc3ccc(-c4nc(N5C[C@@H](C)O[C@@H](C)C5)cc(N5C6CCC5COC6)n4)cc3)cc2)CC1 [1-(4-{4-[(2R,6S)-2,6-dimethylmorpholin-4-yl]-6-(3-oxa-8-azabicyclo[3.2.1]oct-8-yl)pyrimidin-2-yl}phenyl)-3-(4-{[4-(1-methylethyl)piperazin-1-yl]carbonyl}phenyl)urea]	293	0.8	≤ 0.8	0.915	2.7
CN1CCN(c2ccc(NC(=O)Nc3ccc(-c4nc(NCCS(C)(=O)=O)cc(N5C6CCC5COC6)n4)cc3)cc2)CC1 [1-[4-(4-methylpiperazin-1-yl)phenyl]-3-{4-[4-{[2-(methylsulfonyl)ethyl]amino}-6-(3-oxa-8-azabicyclo[3.2.1]oct-8-yl)pyrimidin-2-yl]phenyl}urea]	1840	19	17	≥ 10	14.5
CC(C)Nc1cc(N2C3COCC2COC3)nc(-c2ccc(NC(=O)Nc3ccc(OCCN(C)C)cc3)cc2)n1 [1-{4-[2-(dimethylamino)ethoxy]phenyl}-3-{4-[4-(3,7-dioxa-9-azabicyclo[3.3.1]non-9-yl)-6-(isopropylamino)pyrimidin-2-yl]phenyl}urea]	1760	600	420	8.63	16.5
